Legend:
Assay type in all cases: in vivo
pale smartweed (Po) [1] = assay: Test Example 7: crop plant selectivity by upland field soil treatment (corn), herbicidal effects; parameters: scale not given here; conditions: 21st day after application
How it was run: (§1)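 Corn and weed seeds were sown in sand-filled pots and covered with soil. After application, plants were grown in a greenhouse, and herbicidal effect and crop phytotoxicity were scored against fixed rating standards on day 21.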

China jute (Ab) = assay: as above; parameters: scale not given here; conditions: 21st day after application
How it was run: as §1

slender amaranth (Am) [2] = assay: as above; parameters: scale not given here; conditions: 21st day after application
How it was run: as §1

green foxtail (Se) = assay: as above; parameters: scale not given here; conditions: 21st day after application
How it was run: as §1

[3] = tested on: common lambsquarters (Ch); assay: as above; parameters: scale not given here; conditions: 21st day after application
How it was run: as §1

pale smartweed (Po) [4] = assay: Test Example 2: herbicidal effects by upland field soil treatment; conditions: 100 g of the active ingredient per 10 ares, evaluated on the 21st day after application;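 also: grade of growth control; 5 = at least 90%; 4 = 70 to 90%; 3 = 50 to 70%; 2 = 30 to 50%; 1 = 10 to 30%; 0 = under 10%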
Description: (§2) (Test on Herbicidal Effects by Upland Field Soil Treatment)

barnyardgrass (Ec) = assay: as above; conditions: 100 g of the active ingredient per 10 ares, evaluated on the 21st day after application;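 also: grade of growth control; 5 = at least 90%; 4 = 70 to 90%; 3 = 50 to 70%; 2 = 30 to 50%; 1 = 10 to 30%; 0 = under 10%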
Description: as §2

slender amaranth (Am) [5] = assay: as above; conditions: 100 g of the active ingredient per 10 ares, evaluated on the 21st day after application
Description: as §2

Digitaria ciliaris (Di) = assay: as above; conditions: 100 g of the active ingredient per 10 ares, evaluated on the 21st day after application;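 also: grade of growth control; 5 = at least 90%; 4 = 70 to 90%; 3 = 50 to 70%; 2 = 30 to 50%; 1 = 10 to 30%; 0 = under 10%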
Description: as §2

[6] = tested on: common lambsquarters (Ch); assay: as above; conditions: 100 g of the active ingredient per 10 ares, evaluated on the 21st day after application
Description: as §2

SMILES | Herbicidal effects Po (pale smartweed (Po) [1]; dose 6.3 g ai/10a) | Herbicidal effects Ab (China jute (Ab); dose 6.3 g ai/10a) | Herbicidal effects Am (slender amaranth (Am) [2]; dose 6.3 g ai/10a) | Herbicidal effects Se (green foxtail (Se); dose 6.3 g ai/10a) | Herbicidal effects Ch ([3]; dose 6.3 g ai/10a) | Herbicidal effects Po (pale smartweed (Po) [4]) | Herbicidal effects Ec (barnyardgrass (Ec)) | Herbicidal effects Am (slender amaranth (Am) [5]) | Herbicidal effects Di (Digitaria ciliaris (Di)) | Herbicidal effects Ch [6] | Herbicidal effects Po (pale smartweed (Po) [1]; dose 1.6 g ai/10a) | Herbicidal effects Ab (China jute (Ab); dose 1.6 g ai/10a) | Herbicidal effects Am (slender amaranth (Am) [2]; dose 1.6 g ai/10a) | Herbicidal effects Se (green foxtail (Se); dose 1.6 g ai/10a) | Herbicidal effects Ch ([3]; dose 1.6 g ai/10a)
CCON=Cc1cc(-c2ccc(C(F)(F)F)n(C)c2=O)c(F)cc1Cl [Compound 1-187] | 5 | 5 | 5 | 5 | 5 | 5 | 5 | 5 | 5 | 5 | – | – | – | – | –
CCOC(=O)CON=Cc1cc(-c2ccc(C(F)(F)F)n(C)c2=O)c(F)cc1Cl [Compound 1-191] | 5 | 5 | 5 | 5 | 5 | 5 | 5 | 5 | 5 | 5 | – | – | – | – | –
C=CC(O)c1cc(-c2ccc(C(F)(F)F)n(C)c2=O)c(F)cc1Cl (stereo not shown) [Compound 1-197] | 5 | 5 | 5 | 5 | 5 | 5 | 5 | 5 | 5 | 5 | – | – | – | – | –
C#CC(O)c1cc(-c2ccc(C(F)(F)F)n(C)c2=O)c(F)cc1Cl (stereo not shown) [Compound 1-202] | – | – | – | – | – | 5 | 5 | 5 | 5 | 5 | 5 | 5 | 5 | 5 | 5
CSCOc1cc(-c2ccc(C(F)(F)F)n(C)c2=O)c(F)cc1Cl [Compound 1-208] | 4 | 5 | 5 | 5 | 5 | 5 | 5 | 5 | 5 | 5 | – | – | – | – | –
C#CCN1C(=O)COc2cc(Cl)c(-c3ccc(C(F)(F)F)n(C)c3=O)cc21 [Compound 2-25] | – | – | – | – | – | 5 | 5 | 5 | 5 | 5 | 5 | 5 | 5 | 5 | 5
C=CCN1C(=O)COc2cc(Cl)c(-c3ccc(C(F)(F)F)n(C)c3=O)cc21 [Compound 2-26] | 5 | 5 | 5 | 5 | 5 | 5 | 5 | 5 | 5 | 5 | – | – | – | – | –
Cc1cc2c(-c3ccc(C(F)(F)F)n(C)c3=O)c(F)cc(Cl)c2o1 [Compound 4-1] | 5 | 5 | 5 | 5 | 5 | 5 | 5 | 5 | 5 | 5 | 5 | 5 | 5 | 5 | 5
CCc1cc2c(-c3ccc(C(F)(F)F)n(C)c3=O)c(F)cc(Cl)c2o1 [Compound 4-2] | 5 | 5 | 5 | 5 | 5 | 5 | 5 | 5 | 5 | 5 | 5 | 5 | 5 | 5 | 5

— patent US6472348B1, “Pyridone derivatives and herbicides” (Kumiai Chemical Industry Co., Ltd., priority 1996, dated 2002)
